Type in all cases: functional
In one assay the test system is Micrococcus luteus. Kind of assay: Antibacterial activity against Micrococcus luteus ATCC 9341 by TLC bioautographic test.
For the next assay, the system named is Bacillus subtilis. The assay can be described thus: Antibacterial activity against Bacillus subtilis ATCC […] by TLC bioautographic test.
In the next assay the test system is Escherichia coli. The assay can be described thus: Antibacterial activity against Escherichia coli ATCC 25922 by TLC bioautographic test.

Turning to `CC1=C(CC/C(C)=C/CC/C(C=O)=C\C[C@H]2OC(=O)C=C2CO)C(C)(C)CCC1`, the Activity with Micrococcus luteus and in the assay on Bacillus subtilis was 4 µg each time.

With `CC(=O)OC/C(=C\C[C@H]1OC(=O)C=C1CO)CC/C=C(\C)CCC1=C(C)CCCC1(C)C`, the Activity is 8 µg in the assay on Micrococcus luteus and 2 µg in the assay with Bacillus subtilis.

Regarding `CC(=O)OC/C(=C\C[C@H]1OC(=O)CC1CO)CC/C=C(\C)CCC1=C(C)CCCC1(C)C` (stereo partly drawn), the Activity was 3 µg with Micrococcus luteus and 11 µg in the assay with Bacillus subtilis.

For the compound `CC1=C(CC/C(C)=C/CC/C(=C/C[C@H]2OC(=O)CC2CO)CO)C(C)(C)CCC1` (stereo partly drawn), the figures for the Activity in the assay with Escherichia coli and with Micrococcus luteus were 1 µg and 5 µg, respectively.
